Values quoted from earlier work, collected in PubChem BioAssay AID1259409 (Chemical Carcinogenesis Research Information System (CCRIS), 2018).

Tested on: rodent chemically induced tumor inhibition, incidence and multiplicity
Experiment: CCRIS tumor inhibitor studies
Conditions: Dose [Inhibitor]: 0, Route [Inhibitor]: ORAL, Promoter: NONE USED

SMILES: CC1=C(/C=C/C(C)=C/C=C/C(C)=C/C=C/C=C(C)/C=C/C=C(C)/C=C/C2=C(C)CCCC2(C)C)C(C)(C)CCC1
- tumour outcome (control, treated, inhibition, significance) (Carcinogen: N-ETHYL-N'-NITRO-N-NITROSOGUANIDINE, 4245-77-6, 0.005% PALM CAROTENE IN DRINKING WATER FOR 16 WK BEGINNING POST CARCINOGEN TREATMENT (STUDY DURATION: 20 WK), Species: MOUSE, Strain/Sex: C57BL/MALE, Target Tissue: Type of Lesion: DUODENUM: TUMOR, Dose [Carcinogen]: 100 MG/L IN DRINKING WATER FOR 4 WK): 18/27 (67%), 8/16 (50%), 25%, not significant
- tumour outcome (control, treated, inhibition, significance) (Carcinogen: N-ETHYL-N'-NITRO-N-NITROSOGUANIDINE, 4245-77-6, 0.05% PALM CAROTENE IN DRINKING WATER FOR 16 WK BEGINNING POST CARCINOGEN TREATMENT (STUDY DURATION: 20 WK), Species: MOUSE, Strain/Sex: C57BL/MALE, Target Tissue: Type of Lesion: DUODENUM: TUMOR, Dose [Carcinogen]: 100 MG/L IN DRINKING WATER FOR 4 WK): 18/27 (67%), 11/28 (39%), 42%, p<0.05
- tumour outcome (control, treated, inhibition, significance) (Carcinogen: N-METHYL-N'-NITRO-N-NITROSOGUANIDINE, 70-25-7, 0.4% IN DIET FOR 2 WK PRIOR TO FIRST CARCINOGEN DOSE FOLLOWED BY 0, 0.2% IN DIET FOR 25 WK (STUDY DURATION: 27 WK), 0.4% IN DIET FOR 2 WK PRIOR TO FIRST CARCINOGEN DOSE FOLLOWED BY 0, 0.2% IN DIET FOR 25 WK (STUDY DURATION: 27 WK), Species: RAT, Strain/Sex: WISTAR/MALE, Target Tissue: Type of Lesion: COLON: ADENOCARCINOMA, Dose [Carcinogen]: 0.15 ML OF A 13.4 MG/ML SOLUTION IN DISTILLED WATER 2/WK FOR 3 WK): 34/36 (94%), 34/35 (97%), -3%, not calculated
- tumour outcome (control, treated, inhibition, significance) (Carcinogen: N-METHYL-N'-NITRO-N-NITROSOGUANIDINE, 70-25-7, 0.4% IN DIET FOR 2 WK PRIOR TO FIRST CARCINOGEN DOSE FOLLOWED BY 0, 0.2% IN DIET FOR 25 WK (STUDY DURATION: 27 WK), 0.4% IN DIET FOR 2 WK PRIOR TO FIRST CARCINOGEN DOSE FOLLOWED BY 0, 0.2% IN DIET FOR 25 WK (STUDY DURATION: 27 WK), Species: RAT, Strain/Sex: WISTAR/MALE, Target Tissue: Type of Lesion: COLON: ADENOMA, Dose [Carcinogen]: 0.15 ML OF A 13.4 MG/ML SOLUTION IN DISTILLED WATER 2/WK FOR 3 WK): 17/36 (47%), 24/35 (69%), -47%, not calculated
- tumour outcome (control, treated, inhibition, significance) (Carcinogen: N-METHYL-N'-NITRO-N-NITROSOGUANIDINE, 70-25-7, 0.4% IN DIET FOR 2 WK PRIOR TO FIRST CARCINOGEN DOSE FOLLOWED BY 0, 0.2% IN DIET FOR 52 WK (STUDY DURATION: 54 WK), 0.4% IN DIET FOR 2 WK PRIOR TO FIRST CARCINOGEN DOSE FOLLOWED BY 0, 0.2% IN DIET FOR 52 WK (STUDY DURATION: 54 WK), Species: RAT, Strain/Sex: WISTAR/MALE, Target Tissue: Type of Lesion: GLANDULAR STOMACH: ADENOCARCINOMA, Dose [Carcinogen]: 80 UG/ML IN DRINKING WATER FOR 52 WK): 7/36 (19%), 4/35 (11%), 42%, not calculated
- outcome (Carcinogen: N-METHYL-N'-NITRO-N-NITROSOGUANIDINE, 70-25-7, 0.4% IN DIET FOR 2 WK PRIOR TO FIRST CARCINOGEN DOSE FOLLOWED BY 0, 0.2% IN DIET FOR 52 WK (STUDY DURATION: 54 WK), 0.4% IN DIET FOR 2 WK PRIOR TO FIRST CARCINOGEN DOSE FOLLOWED BY 0, 0.2% IN DIET FOR 52 WK (STUDY DURATION: 54 WK), Species: RAT, Strain/Sex: WISTAR/MALE, Target Tissue: Type of Lesion: GLANDULAR STOMACH: LEIOMYOSARCOMA, Dose [Carcinogen]: 80 UG/ML IN DRINKING WATER FOR 52 WK): 0/36 (0%), 2/35 (6%), -600%, not calculated
- tumour outcome (control, treated, inhibition, significance) (Carcinogen: N-METHYL-N'-NITRO-N-NITROSOGUANIDINE, 70-25-7, 0.4% IN DIET FOR 2 WK PRIOR TO FIRST CARCINOGEN DOSE FOLLOWED BY 0, 0.2% IN DIET FOR 52 WK (STUDY DURATION: 54 WK), 0.4% IN DIET FOR 2 WK PRIOR TO FIRST CARCINOGEN DOSE FOLLOWED BY 0, 0.2% IN DIET FOR 52 WK (STUDY DURATION: 54 WK), Species: RAT, Strain/Sex: WISTAR/MALE, Target Tissue: Type of Lesion: SMALL INTESTINE: ADENOCARCINOMA, Dose [Carcinogen]: 80 UG/ML IN DRINKING WATER FOR 52 WK): 10/36 (28%), 17/35 (49%), -75%, p= 0.12
- tumour outcome (control, treated, inhibition, significance) (Carcinogen: N-METHYL-N'-NITRO-N-NITROSOGUANIDINE, 70-25-7, 0.4% IN DIET FOR 2 WK PRIOR TO FIRST CARCINOGEN DOSE FOLLOWED BY 0, 0.2% IN DIET FOR 52 WK (STUDY DURATION: 54 WK), 0.4% IN DIET FOR 2 WK PRIOR TO FIRST CARCINOGEN DOSE FOLLOWED BY 0, 0.2% IN DIET FOR 52 WK (STUDY DURATION: 54 WK), Species: RAT, Strain/Sex: WISTAR/MALE, Target Tissue: Type of Lesion: SMALL INTESTINE: ADENOMA, Dose [Carcinogen]: 80 UG/ML IN DRINKING WATER FOR 52 WK): 1/36 (3%), 0/35 (0%), 100%, not calculated
- tumour outcome (control, treated, inhibition, significance) (Carcinogen: N-METHYL-N'-NITRO-N-NITROSOGUANIDINE, 70-25-7, 0.4% IN DIET FOR 2 WK PRIOR TO FIRST CARCINOGEN DOSE FOLLOWED BY 0, 0.2% IN DIET FOR 52 WK (STUDY DURATION: 54 WK), 0.4% IN DIET FOR 2 WK PRIOR TO FIRST CARCINOGEN DOSE FOLLOWED BY 0, 0.2% IN DIET FOR 52 WK (STUDY DURATION: 54 WK), Species: RAT, Strain/Sex: WISTAR/MALE, Target Tissue: Type of Lesion: SMALL INTESTINE: ANGIOSARCOMA, Dose [Carcinogen]: 80 UG/ML IN DRINKING WATER FOR 52 WK): 3/36 (8%), 6/35 (17%), -113%, not calculated
